Laboratory results: US7521560B2, “2-substituted quinoline compounds and their uses” (Rigel Pharmaceuticals, Inc., priority 2004, dated 2009)
Read-outs that look alike come from different tables or passages of the source.

Experiments:
[1] = system: cultured human mast cells (CHMC); assay: CHMC low cell density IgE activation: tryptase release assay; format: cell-based; settings: for IC50: Homo sapiens, Mast cell, anti-IgE-induced tryptase release, low density CHMC; for activity in "prodrug" form: referring to TABLE 1
Procedure: Inhibition of degranulation was measured at low density (and could also be measures at high cell density) by quantifying the release of the granule specific factor tryptase. Tryptase was quantified using a fluorogenic substrates as described in its respective examples. Histamine, TNFα, IL-6, IL-13 and LTC4 can be quantified, if desired, using the following commercial ELISA kits: histamine (Immunotech #2015, Beckman Coulter), TNFα (Biosource #KHC3011), IL-6 (Biosource #KMC0061), IL-13 (Biosource #KHC0132) and LTC4 (Cayman Chemical #520211). The protocols for various assays are provided below.
A second phase is performed to convert the expanded CD34-negative progenitor cells into differentiated mucosal mast cells. These mucosal cultured human mast cells (“CHMC”) are derived from CD34+ cells isolated from umbilical cord blood and treated to form a proliferated population of CD34-negative progenitor cells, as described above. To produce the CD34-negative progenitor cells, the resuspension cycle for the culture was the same as that described above, except that the culture was seeded at a density of 425,000 cells/mL and 15% additional media was added on about day four or five without performing a cell count. Also, the cytokine composition of the medium was modified such that it contained SCF (200 ng/mL) and recombinant human IL-6 (200 ng/mL; Peprotech, Catalog No. 200-06 reconstituted to 100 ug/mL in sterile 10 mM acetic acid) (“CM/SCF/IL-6 medium”).
To duplicate 96-well U-bottom plates (Costar 3799) add 65 ul of compound dilutions or control samples that have been prepared in MT [137 mM NaCl, 2.7 mM KCl, 1.8 mM CaCl2, 1.0 mM MgCl2, 5.6 mM Glucose, 20 mM Hepes (pH 7.4), 0.1% Bovine Serum Albumin, (Sigma A4503)] containing 2% MeOH and 1% DMSO. Pellet CHMC cells (980 rpm, 10 min) and resuspend in pre-warmed MT. Add 65 ul of cells to each 96-well plate. Depending on the degranulation activity for each particular CHMC donor, load 1000-1500 cells/well. Mix four times followed by a 1 hr incubation at 37° C. During the 1 hr incubation, prepare 6× anti-IgE solution [rabbit anti-human IgE (1 mg/ml, Bethyl Laboratories A80-109A) diluted 1:167 in MT buffer]. Stimulate cells by adding 25 ul of 6× anti-IgE solution to the appropriate plates. Add 25 ul MT to un-stimulated control wells. Mix twice following addition of the anti-IgE. Incubate at 37° C. for 30 minutes. During the 30 minute incubation, dilute the 20 mM tryptase substrate stock solution [(Z-Ala-Lys-Arg-AMC.2TFA; Enzyme Systems Products, #AMC-246)] 1:2000 in tryptase assay buffer [0.1 M Hepes (pH 7.5), 10% w/v Glycerol, 10 uM Heparin (Sigma H-4898) 0.01% NaN3]. Spin plates at 1000 rpm for 10 min to pellet cells. Transfer 25 ul of supernatant to a 96-well black bottom plate and add 100 ul of freshly diluted tryptase substrate solution to each well. Incubate plates at room temperature for 30 min. Read the […] of the plates at 355 nm/460 nm on a spectrophotometric plate reader.
The results of low density CHMC assays for release of tryptase (Section 6.2.2) are provided for examplary quinoline compounds in TABLE 1, supra. In TABLE 1, a value of “+” indicates an IC50 of 20 μM or less; a value of “++” indicates an IC50 of 10 μM or less; and a value of “+++” indicates an IIC50 of 5 μM or less.

[2] = system: passive cutaneous anaphylaxis (PCA) response; settings: i.p., 30 minutes pretreatment time
Procedure: The in vivo efficacy of the quinoline compounds towards allergies can be evaluated in the mouse model of passive cutaneous anaphylaxis (PCA). This model provides a direct measure of IgE-induced degranulation of tissue mast cells. In this model, IgE primed animals are exposed to an allergen challenge and the change in permeability of dermal vasculature that results from histamine release from mast cells is measured by change in the amount of dye leakage into surrounding tissue. Inhibition of mediator release by compounds that modulate mast cell degranulation is easily measured by extracting the dye from the tissue.
In the PCA assay mice are passively sensitized by intradermal injection with anti-dinitrophenol (DNP) IgE antibodies (Day −1). At predetermined times (5-60 minutes prior to challenge), animals are treated with the test agent (Day 0). The modulatory effect of the agent on cutaneous mast cell degranulation is measured following intravenous injection of DNP conjugated to human serum albumin (HSA-DNP), together with Evans blue dye. The resulting cross-linking of the IgE receptor and subsequent mast cell degranulation-induced increase in vascular permeability is determined by measuring the amount of dye extravasation into the tissue. Dye is extracted from the tissue by formamide, and the absorbance of this extract is read at 620 nm. […]

SMILES | IC50 [1] [µM] | further results
Cc1cc(Nc2nc[nH]c2C(N)=O)nc2ccccc12 [Compound 15, 2-(5-aminocarbonyl-1H-imidazol-4-ylamino)-4-methylquinoline] | ≤ 10 | –
COc1ccc(-c2cc(Nc3ccc4cc(Cl)ccc4n3)n[nH]2)cc1 [Compound 11, 6-chloro-2-[5-(4-methoxyphenyl)-1H-pyrazol-3-ylamino]quinoline] | ≤ 5 | –
NC(=O)c1[nH]cnc1Nc1ccc2cccc(Cl)c2n1 [Compound 5, 2-(5-aminocarbonyl-1H-imidazol-4-ylamino)-8-chloroquinoline] | ≤ 5 | –
Oc1cccc2ccc(Nc3nc[nH]c3Cl)nc12 [Compound 21, 2-(5-chloro-1H-imidazol-4-ylamino)-8-hydroxyquinoline] | > 20 | IC50 ([1]; stated in text): > 20 µM
CN(C)CCOC(c1ccccc1)c1ccccc1 [diphenhydramine] | – | inhibition of the PCA response ([2]; highest dose, 50 mg/kg): up to 86%
CN1CCC(=C2c3ccccc3C=Cc3ccccc32)CC1 [Cyproheptadine, cyproheptadine] | – | inhibition of the PCA response ([2]; 8 mg/kg, n=23 experiments): 61%+/−4
CC(C)(C)c1cc(Nc2ccc3cccc(Cl)c3n2)n[nH]1 [Compound 13, 2-(5-tert-butyl-1H-pyrazol-3-ylamino)-8-chloroquinoline] | ≤ 10 | –
N#Cc1c[nH]nc1Nc1ccc2cccc(Cl)c2n1 [Compound 20, 8-chloro-2-(4-cyano-1H-pyrazol-3-ylamino)quinoline] | ≤ 20 | –
NC(=O)c1[nH]cnc1Nc1cc(C(=O)N2CCOCC2)c2ccccc2n1 [Compound 22, 2-(5-aminocarbonyl-1H-imidazol-4-ylamino)-4-(4-morpholinocarbonyl)quinoline] | > 20 | IC50 ([1]; stated in text): > 20 µM
NC(=O)c1[nH]cnc1Nc1ccc2cc(Cl)ccc2n1 [Compound 4, 2-(5-aminocarbonyl-1H-imidazol-4-ylamino)-6-chloroquinoline] | ≤ 5 | –
Clc1cccc2ccc(Nc3cc(-c4ccccc4)n[nH]3)nc12 [Compound 7, 8-chloro-2-(3-phenyl-1H-pyrazol-5-ylamino)quinoline] | ≤ 5 | –
CCOC(=O)c1c[nH]nc1Nc1ccc2cccc(Cl)c2n1 [Compound 17, 8-chloro-2-(4-ethoxycarbonyl-1H-pyrazol-3-ylamino)quinoline] | ≤ 10 | activity in "prodrug" form [1]: active
Cc1cc(Nc2ccc3cccc(Cl)c3n2)n[nH]1 [Compound 12, 8-chloro-2-(5-methyl-1H-pyrazol-3-ylamino)quinoline] | ≤ 5 | –

The next lines start with results.

IC50 [1] [µM] | SMILES | further results
≤ 10 | CNC(=O)c1cc(Nc2nc[nH]c2C(N)=O)nc2ccccc12 [Compound 18, 2-(5-aminocarbonyl-1H-imidazol-4-ylamino)-4-methylaminocarbonylquinoline] | activity in "prodrug" form [1]: active
≤ 5 | NC(=O)c1c[nH]nc1Nc1ccc2cccc(Cl)c2n1 [Compound 6, 2-(4-aminocarbonyl-1H-pyrazol-3-ylamino)-8-chloroquinoline] | –
≤ 5 | Clc1ccc2nc(Nc3n[nH]c(-c4ccccc4)c3Br)ccc2c1 [Compound 3, 2-(4-bromo-5-phenyl-1H-pyrazol-3-ylamino)-6-chloroquinoline] | –
≤ 5 | Clc1ccc2nc(Nc3cc(-c4ccccc4)n[nH]3)ccc2c1 [Compound 1, 6-chloro-2-(3-phenyl-1H-pyrazol-5-ylamino)quinoline] | –
≤ 20 | Clc1cccc2ccc(Nc3cc[nH]n3)nc12 [Compound 19, 8-chloro-2-(1H-pyrazol-3-ylamino)quinoline] | –
≤ 5 | Clc1cccc2ccc(Nc3cc(-c4cccs4)n[nH]3)nc12 [Compound 8, 8-chloro-2-(3-thiophen-2-yl-1H-pyrazol-5-ylamino)quinoline] | –
≤ 5 | Clc1cccc2ccc(Nc3n[nH]c(-c4ccccc4)c3Br)nc12 [Compound 2, 2-(4-bromo-5-phenyl-1H-pyrazol-3-ylamino)-8-chloroquinoline] | –
≤ 5 | Clc1ccc2nc(Nc3cc(-c4cccs4)n[nH]3)ccc2c1 [Compound 9, 6-chloro-2-(3-thiophen-2-yl-1H-pyrazol-5-ylamino)quinoline] | –
≤ 5 | COc1ccc(-c2cc(Nc3ccc4cccc(Cl)c4n3)n[nH]2)cc1 [Compound 10, 8-chloro-2-[5-(4-methoxyphenyl)-1H-pyrazol-3-ylamino]quinoline] | –
≤ 10 | NC(=O)c1c[nH]nc1Nc1ccc2cc(Cl)ccc2n1 [Compound 16, 2-(4-aminocarbonyl-1H-pyrazol-3-ylamino)-6-chloroquinoline] | –
